According to patent US20260097135A1, “MODIFIED ONCOLYTIC HERPES SIMPLEX VIRUS (oHSV) AND METHODS OF USE THEREOF” (The General Hospital Corporation, priority 2022, published 2026):
Entries after “also recorded” stand apart in the source; their conditions may differ.

B1: R-hIL12: recombinant hIL12 (R&D Systems) with known functional activity, positive control (protein, UniProt P29459 23-219; P29460 23-328, looked up)
Interleukin-12 subunit alpha: RNLPVATPDPGMFPCLHHSQNLLRAVSNMLQKARQTLEFYPCTSEEIDHEDITKDKTSTVEACLPLELTKNESCLNSRETSFITNGSCLASRKTSFMMALCLSSIYEDLKMYQVEFKTMNAKLLMDPKRQIFLDQNMLAVIDELMQALNFNSETVPQKSSLEEPDFYKTKIKLCILLHAFRIRAVTIDRVMSYLNAS
Interleukin-12 subunit beta: IWELKKDVYVVELDWYPDAPGEMVVLTCDTPEEDGITWTLDQSSEVLGSGKTLTIQVKEFGDAGQYTCHKGGEVLSHSLLLLHKKEDGIWSTDILKDQKEPKNKTFLRCEAKNYSGRFTCWWLTTISTDLTFSVKSSRGSSDPQGVTCGAATLSAERVRGDNKEYEYSVECQEDSACPAAEESLPIEVMVDAVHKLKYENYTSSFFIRDIIKPDPPKNLQLKPLKNSRQVEVSWEYPDTWSTPHSYFSLTFCVQVQGKSKREKKDRVFTDKTSATVICRKNASISVRAQDRYYSSSWSEWASVPCS

Test system: human NK cell line NK-92MI
Experiment: hIL-12 bioactivity: IFN-γ production by NK-92MI cells (ELISA)
Assay type: cell-based
Procedure: HIL12 levels were measured with the human p70 Quantikine ELISA kit (R&D Systems, Bio-Techne, Minneapolis, MN). Functional hIL12 was assessed using human NK cell line NK-92MI (ATCC (CRL-2408)) and hIL-12 induced IFN-γ production. Recombinant hIL12 (R-hIL12; R&D Systems) with known functional activity was used as a positive control. NK-92MI cells were seeded in a 48-well plate at 2×10^4 cells/well. hIL12 produced by virus-infected cells 64 hpi or R-hIL12 was added to NK-92MI cell cultures at the indicated concentrations (with or without 10 μg/ml heparin). HIL12-dependent secretion of IFN-γ into the supernatant was quantified after 24 hrs via ELISA (Human IFN-gamma Quantikine ELISA Kits (R&D systems)).

| Molecule | effect of heparin on hIL-12-induced IFN-γ (heparin 10 μg/ml) | hIL-12 induced IFN-γ production by NK-92MI cells (hIL-12 from infected Vero supernatants (64 hpi) or recombinant, 24 hrs) |
| --- | --- | --- |
| heparin | greatly enhanced the activity of hIL12; also recorded: synergizes with hIL-12 in stimulating hIFNγ production | – |
| B1 | – | dose-dependent manner |
